Consider four compounds from patent US10507212B2, “Method for use of homopiperazinium compounds in the treatment of cancer” (UNIVERSITÉ LAVAL, priority 2014, dated 2019).

In one series the test system is A549 lung adenocarcinoma. Nature of the series: In vitro combination treatment with cisplatin or taxol, A549 (MTT). It counts as cell-based, human. The conditions noted are these: A549, 3 days; increasing concentrations added to suboptimal doses of ASM-024. As for the experimental part:
The concomitant effect of ASM-024 and cisplatin or taxol on the proliferation of A549 lung adenocarcinoma and MCF7 breast cancer adenocarcinoma cells was assessed in vitro.
A549 cells (3.0×10^3cells/well) were first cultured with 10% FBS in F12K media and MCF7 cells (10×10^3 cells/well) with 10% FBS in EMEM media for 24 hours to allow cells to adhere to the plate at 37° C. in a humidified incubator with 5% CO2. The next day, the media was replaced in medium containing appropriate drug concentrations […] for an additional 72 hours. Cell viability was quantified using the MTT colorimetric assay (M2128, Sigma) at 575-690 nm.

The subject of series [1] is A549 human lung carcinoma cells. Nature of the series: In vivo antitumor assay, A549 xenograft in Balb/c nude mice (Example 29). To be noted: day 49; ASM-024 45 mg/kg s.c. daily day 14-38; taxol 10 mg/kg i.p. days 21, 28, 35; cisplatin 2.5 mg/kg i.p. days 28, 35. As for the experimental part: For the in vivo antitumor assay, A549 human lung carcinoma cells (3.5×106) in 50% F12K medium (Matrigel) were implanted subcutaneously in the flank of Balb/c nude mice (nu/nu, Charles River) and allowed to grow for 14 days. ASM-024 was administered daily by subcutaneous delivery at the dose of 45 mg/kg from day 14 to day 38 post cell inoculation. Taxol was administrated intraperitoneally at the dose of 10 mg/kg on days 21, 28 and 35. Cisplatin was administrated intraperioneally at the dose of 2.5 mg/kg on days 28 and 35. From day 14 to day 49, tumor length and width were measured once or twice a week with a caliper and tumor volume calculated according to the formula Volume=(width2×length)/2.

The test system of series [2] is A549 adenocarcinoma cell line. Nature of the series: Cell proliferation assay, A549 (MTT). To be noted: Homo sapiens. As for the experimental part:
(§1) In vitro experiments were conducted on four cancer cell lines: the A549 adenocarcinoma cell line, the H520 squamous cell carcinoma the H82 small cell lung carcinoma and Calu 3 lung adenocarcinoma. The A549 tumor cells, were plated at a density of 1.5×10^4 cells per mL and let to adhere on 96-well microplates in F12K cell culture medium enriched with 10% fetal calf serum (FCS). The H520, H82 and Calu 3 tumor cells were plated at a density of 5×10^4 cells per mL in RPMI+10% FCS. After 24 h in culture, the medium was changed and cells were exposed to ASM-024 at concentrations ranging from 10^−7M to 10^−3M (FIGS. 1A-1C). After 3 and 6 days in culture, cell growth was quantified using the MTT colorimetric assay (M2128, Sigma) at 575-690 nm or the Cell Titer fluorescence assay (G8080, Promega) at 560/590 nm.
(§2) In an another set of experiments, a series of 16 other homopiperazinium compounds, in addition to ASM-024, were tested for their anti-proliferative effect on the four tumor cell lines described above after up to 6 days in culture at concentrations of 10^-7M to 10^-3M. (FIGS. 4A-4E) Cell growth was quantified using the MTT colorimetric assay for the A-549, H520 and Calu 3 cell lines and the CellTiter Fluorescence assay.for the H82 tumor cell line These are established method of determining viable cell number in proliferation studies.

The test system of series [3] is H520 squamous cell carcinoma. Nature of the series: Cell proliferation assay, H520 (MTT). It counts as cell-based. The conditions noted are these: Homo sapiens. As for the experimental part:
as §1, §2

The test system of series [4] is H82 small cell lung carcinoma. The series is described as follows: Cell proliferation assay, H82 (CellTiter fluorescence). It counts as cell-based. To be noted: Homo sapiens, NCI-H82, 72 h, read-out: % Inhibition of Cell Growth at day 3 compared to vehicle-treated cells. As for the experimental part: as §1, §2

Structures can show the parent of a compound that is named as a salt. Where two headings read alike, the source gives them in different places.

For the compound `CC(=O)O[C@H]1C(=O)[C@@]2(C)[C@H]([C@H](OC(=O)c3ccccc3)[C@]3(O)C[C@H](OC(=O)[C@H](O)[C@@H](NC(=O)c4ccccc4)c4ccccc4)C(C)=C1C3(C)C)[C@]1(OC(C)=O)CO[C@@H]1C[C@@H]2O` [taxol, Paclitaxel], the “inhibition of in vitro proliferation, combination” value in the series with A549 lung adenocarcinoma is given as “potentiated the inhibition of in vitro proliferation”. Further, the “A549 human carcinoma tumor growth (tumor volume)” value in series [1] is on record as “decrease in A549 human carcinoma tumor growth”.

`C[N+]1(C)CCCN(c2ccccc2)CC1.[I-]` [ASM-002, 1,1-dimethyl-4-phenylhomopiperazinium iodide] came in with a melting point of 158 to 160 °C. For the same compound, the concentration for half-maximal inhibition (IC50) in series [2] (A549, 72 h, read-out: IC50 Day 3, A549, day 3 in culture) came to 40 ± 15 µM. The IC50 in series [2] (A549, 144 h, read-out: IC50 Day 6, A549, day 6 in culture) stood at 38 ± 12 µM. For the same compound, in series [3] (NCI-H520, 72 h, read-out: IC50 Day 3, H520, day 3 in culture), the concentration for half-maximal inhibition (IC50) was 323 ± 60 µM. In addition, the IC50 in series [3] (NCI-H520, 144 h, read-out: IC50 Day 6, H520, day 6 in culture) turned out to be 170 ± 23 µM. Moreover, in series [4], the inhibition at 100 µM is -15% and the inhibition at 300 µM was 31%.

`C[N+]1(C)CCCN(c2ccc(C(F)(F)F)cc2)CC1` (as salt: iodide) [ASM-071, 4-Dimethyl-1-(4-trifluorophenyl)-homopiperazinium Iodide] yielded a melting point of 224.3 to 225.4 °C.

Take `N.N.[Cl][Pt][Cl]` [Cisplatin]: in the series on A549 lung adenocarcinoma, the “inhibition of in vitro proliferation, combination” value was “potentiated the inhibition of in vitro proliferation”. In addition, in series [1], the “A549 human carcinoma tumor growth (tumor volume)” value is listed as “decrease in A549 human carcinoma tumor growth”.

As a reminder, the IC50 is the midpoint of a concentration-inhibition curve. As a reminder, the inhibition is the change of the read-out against control, counted positive when it falls. A word on the melting point: it is the temperature, or range, at which the solid turns liquid.
